Reference: ChEMBL document CHEMBL1201862, “PubChem BioAssay data set” (2004)
Several values for one entry are separate records, joined by “and”; a condition that tells them apart may be missing. Equal entries are not always repeated.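 Interpolation was linear, between the two tested concentrations surrounding the appropriate level; five concentrations were tested over 48 hours in 96-well plates. GI50 is the concentration that inhibits growth by half.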 Activity calls are given as the source filed them. No stated cut-off is given here; in the data, active = GI50 up to about 1.1 µM and inactive = higher.

Experiments:
Experiment in all cases: growth of human tumour cells (NCI), 48 h
[1] = system: A498
[2] = system: A549
[3] = system: ACHN
[4] = system: COLO 205
[5] = system: HCT-116
[6] = system: NCI-H23
[7] = system: NCI-H522
[8] = system: OVCAR-3
[9] = system: OVCAR-4
[10] = system: OVCAR-8
[11] = system: RXF 393
[12] = system: SF-295
[13] = system: SF-539
[14] = system: SN12C
[15] = system: TK-10
[16] = system: U-251
[17] = system: HL-60
[18] = system: K562

Measured: GI50

CC1=NN(C(=O)CC(=O)Nc2cccc(Cl)c2)C(=O)C1/N=N/c1ccc(S(N)(=O)=O)cc1 (stereo not drawn)
inactive: [1] > 100 µM | [2] > 100 µM | [3] > 100 µM | [4] > 100 µM | [5] > 100 µM | [6] > 100 µM | [7] > 100 µM | [8] > 100 µM | [9] > 100 µM | [10] > 100 µM | [11] > 100 µM | [12] > 100 µM | [13] > 100 µM | [14] > 100 µM | [15] > 100 µM | [16] > 100 µM

O/N=C1/C(=C/c2ccc(Cl)cc2)CCCC1C(NO)c1ccc(Cl)cc1 (stereo not drawn)
inactive: [1] 18.1 µM | [2] 20.3 µM | [3] 31.5 µM | [4] 20.7 µM | [5] 23.9 µM | [17] 18.5 µM | [18] 24.4 µM | [6] 20 µM | [7] 20.3 µM | [8] 16.8 µM | [9] 15.6 µM | [10] 21.1 µM | [11] 12 µM | [12] 18.9 µM | [13] 25.2 µM | [14] 19.3 µM | [15] 31.7 µM | [16] 20.7 µM

O=C(c1ccccc1)c1nnn(Cc2ccccc2Cn2nnc(C(=O)c3ccccc3)c2C(=O)c2ccccc2)c1C(=O)c1ccccc1
inactive: [1] > 100 µM | [2] 48.2 µM | [3] > 100 µM | [4] 50.5 µM | [5] > 100 µM | [17] > 100 µM | [18] > 100 µM | [6] > 100 µM | [7] > 100 µM | [8] > 100 µM | [9] > 100 µM | [10] > 100 µM | [12] > 100 µM | [13] > 100 µM | [14] > 100 µM | [15] > 100 µM | [16] > 100 µM

CC(C)=CCSC1CC2C(CC1(C)O)C2(C)C (stereo not drawn)
inactive: [1] 21.6 µM and 17.3 µM | [2] 11.6 µM and 16.6 µM | [3] 17.2 µM and 17.5 µM | [4] 17.1 µM and 18.5 µM | [5] 15.3 µM and 17.1 µM | [6] 16.1 µM and 12.5 µM | [8] 17.1 µM and 11.4 µM | [9] 19.7 µM and 15.8 µM | [10] 16.6 µM and 14.1 µM | [12] 40.7 µM and 20.9 µM | [13] 18 µM and 15.6 µM | [14] 17 µM and 15.6 µM | [15] 18.1 µM and 16.9 µM | [16] 15.2 µM and 14.1 µM

CN(C)/C(=N/C(=S)Nc1ccccc1)SCc1ccccc1
inactive: [1] 83.8 µM | [2] 32 µM | [3] 45 µM | [4] 14.9 µM | [17] 18.2 µM | [18] 12.3 µM | [6] 40.9 µM | [7] 2.73 µM | [8] 56.8 µM | [9] 5.47 µM | [10] 56.4 µM | [11] 27.7 µM | [12] 42.9 µM | [13] > 100 µM | [14] 66.2 µM | [15] > 100 µM | [16] 49.2 µM

COc1ccc2c(c1)[n+]([O-])c(-c1ccccc1Cl)c(N)[n+]2[O-]
inactive: [1] > 100 µM | [2] 94.2 µM | [3] 86.1 µM | [4] 18.5 µM | [5] > 100 µM | [17] 70.3 µM | [18] 99.1 µM | [6] 37.2 µM | [7] 16.9 µM | [8] 40.6 µM | [9] > 100 µM | [10] > 100 µM | [12] > 100 µM | [13] > 100 µM | [14] > 100 µM | [16] 69.2 µM

Nc1c(-c2ccc(Br)cc2)[n+]([O-])c2ccccc2[n+]1[O-]
inactive: [1] > 100 µM | [2] 92 µM | [3] > 100 µM | [4] > 100 µM | [5] > 100 µM | [17] 82.4 µM | [18] 64.9 µM | [6] > 100 µM | [7] 52.6 µM | [8] 92 µM | [9] > 100 µM | [10] > 100 µM | [12] > 100 µM | [13] > 100 µM | [14] > 100 µM | [16] 78.2 µM

Cc1cccc(C)c1NC(=O)C1C(=O)N(c2c(C)cccc2C)C(=O)/C1=N\NC(N)=S (stereo not drawn)
inactive: [1] > 100 µM | [2] > 100 µM | [3] > 100 µM | [5] 58.2 µM | [17] > 100 µM | [18] 92.9 µM | [6] > 100 µM | [7] > 100 µM | [8] > 100 µM | [9] > 100 µM | [10] > 100 µM | [11] 10.4 µM | [12] > 100 µM | [13] > 100 µM | [14] > 100 µM | [15] > 100 µM | [16] > 100 µM

Cc1c(C(=O)/C=C/c2ccc(N(C)C)cc2)c(=O)n(-c2ccccc2)n1C
inactive: [1] > 100 µM | [2] > 100 µM | [3] > 100 µM | [4] > 100 µM | [5] > 100 µM | [6] > 100 µM | [7] > 100 µM | [8] > 100 µM | [10] > 100 µM | [11] > 100 µM | [12] > 100 µM | [13] > 100 µM | [14] > 100 µM | [15] > 100 µM | [16] > 100 µM

CC(C)C(NCc1c2ccccc2nc2ccccc12)C(=O)O (stereo not drawn)
inactive: [2] 74.6 µM | [3] 35 µM | [4] 72.8 µM | [5] 26.4 µM | [17] 25.3 µM | [18] 32.6 µM | [6] 41.8 µM | [7] 22 µM | [8] 39.5 µM | [9] 15 µM | [10] 26.5 µM | [11] 24.5 µM | [12] 81.5 µM | [13] 45.3 µM | [14] 50 µM | [15] > 100 µM | [16] 91.8 µM

O=[N+]([O-])c1cccc(C2N3CCCCC3[C@@H]3c4[nH]c5ccccc5c4CCN23)c1 (stereo partly drawn)
inactive: [1] 15 µM | [2] 14 µM | [3] 15.9 µM | [4] 13.2 µM | [17] 10.1 µM | [18] 3.88 µM | [6] 12.4 µM | [8] 15.7 µM | [9] 16 µM | [10] 31.4 µM | [11] 5.86 µM | [12] 15.1 µM | [13] 14.8 µM | [14] 14.5 µM | [15] 14.4 µM | [16] 14.1 µM

Nc1cc(C(=O)NC2C3CC4CC(C3)CC2C4)nc(S)n1 (stereo not drawn)
inactive: [1] > 100 µM | [2] > 100 µM | [5] > 100 µM | [17] > 100 µM | [18] > 100 µM | [6] > 100 µM | [7] > 100 µM | [8] > 100 µM | [9] > 100 µM | [10] > 100 µM | [11] > 100 µM | [13] > 100 µM | [14] > 100 µM | [16] > 100 µM
